Source: paper PMC7644710, “Structural insights into the mechanism of rhodopsin phosphodiesterase” (Nature Communications, 2020)

Legend:
[1] = target: T1, Rh-PDE-TMD (SrRh-PDE transmembrane domain) (Salpingoeca rosetta, UniProt F2TZN0); test: X-ray crystallography, […] Å; type: binding; details: covalent; Schiff base at Lys296 in TM7; LCP crystals, pH 5.0
T1 construct: gene PTSG_02023; rhodopsin / transmembrane domain (TM0-7), residues 33-316; C-terminal GFP-His8 cut by TEV; HEK293S GnTI-; dimer

Rh-PDE wt (full-length) = target: T2, Rh-PDE wt (full-length) (Salpingoeca rosetta, UniProt F2TZN0); test: HPLC hydrolysis assay, HEK293T homogenate; type: biochemical; details: 100 μM cGMP, dark or light (Y52 filter), 3 mM MgCl2, pH 6.5, room temperature
T2 construct: gene PTSG_02023; full-length, RHO 1D4 tag, ~75 kDa; human codon-optimised gene expressed in HEK293T; dimer

[2] = target: the molecule itself; test: SEC-MALS; SEC-MALLS, Superdex 200 Increase 10/300, 4 °C, 20 mM Tris-HCl pH 8.0, 150 mM NaCl, 0.01% LMNG; three-detector method
[3] = target: the molecule itself; test: high-speed atomic force microscopy (HS-AFM); purified full-length Rh-PDE reconstituted in an asolectin lipid bilayer, on APTES-treated mica, buffer without detergent, room temperature, tapping mode

CC1=C(/C=C/C(C)=C/C=C/C(C)=C/C=O)C(C)(C)CCC1 [all-trans retinal]
X-ray crystallography, 2.6 Å [1]: canonical rhodopsin-like topology with covalently linked retinal at Lys296 in TM7

Nc1nc2c(ncn2[C@@H]2O[C@@H]3COP(=O)(O)O[C@H]3[C@H]2O)c(=O)[nH]1 [cGMP]
HPLC hydrolysis assay, HEK293T homogenate (Rh-PDE wt (full-length)): The wild-type Rh-PDE showed three and twofold light-induced productions of cAMP and cGMP, respectively

B1: Rhodopsin phosphodiesterase transmembrane domain (Rh-PDE–TMD, residues 33–316) (domain or fragment, Salpingoeca rosetta, UniProt F2TZN0 33-316, looked up)
chain: GRGKRRAKTRNIAIASTKEVQWQGIFMIIVWLCVMGSLIFFANPEASRRVFAKFSHLQSFYGATSVAFAFATGLDILAYVNAVSDEKRVLSGILAYVDGVACISYLSMATLNLYFLVDSTQGNPVWLMRYAEWIITCPTLLYWCGLASRADRSSVSDIATADALLLAGGALSSILPSWPAFFVFAGSFATYIYVMLHMWGMFGKAMQPDFQPPPPLPRHALHLLRCEIVMSWSIFPLVEFLRRQGYIDFQVGEAMNCVADYAAKVGLAMIMVNCNLEQINALRV
modifications: covalently linked retinal at Lys296
notes: Rhodopsin phosphodiesterase (Rh-PDE) of Salpingoeca rosetta, transmembrane domain, residues 33-316; gene synthesised with human codon optimisation; TEV site between the protein and the GFP-His8 tag; also called SrRh-PDE–TMD; source: HEK293S GnTI- cells (pEG BacMam), purified (TALON, TEV cleavage, SEC) in LMNG/CHS; not shown: GFP-His8, C-terminal, cleaved
stoichiometry N [2]: 2

B2: Full-length rhodopsin phosphodiesterase from Salpingoeca rosetta (enzyme, UniProt F2TZN0 1-704, looked up)
chain: MGRKNAANSSMLQEASMNNYSMTSAASGASSSGRGKRRAKTRNIAIASTKEVQWQGIFMIIVWLCVMGSLIFFANPEASRRVFAKFSHLQSFYGATSVAFAFATGLDILAYVNAVSDEKRVLSGILAYVDGVACISYLSMATLNLYFLVDSTQGNPVWLMRYAEWIITCPTLLYWCGLASRADRSSVSDIATADALLLAGGALSSILPSWPAFFVFAGSFATYIYVMLHMWGMFGKAMQPDFQPPPPLPRHALHLLRCEIVMSWSIFPLVEFLRRQGYIDFQVGEAMNCVADYAAKVGLAMIMVNCNLEQINALRVQQMHSALTGMLKVMRKTNLSSSRMAQLDGVDDDVKSWIMNEFSGSTDGKGGDDAKAQQRARGRKGHSAAMDAEKLAASSLFTWDFDALDKSDEDLTAVCVRVFQELHVIEQFNIDEKKLRKWLQKVRTQYNKNPFHNWRHAVMVLHTTYLLLTSVATEFITEVELLAMLIAALSHDLDHNGLTNAFHINSRSELALVYNDQSVLENHHSHLAFEILLEKGCNVVENLDEDEFKRLRAVIINCILNTDMATHHTKLSKMEEVNRLGGFINLAENNDQRLFVLAVLLHTADLHNPIKPFESNKRWSARLQKEFNNQVELEAKMNLPSLPFMRGNDEESLAKGEIGFINFVVKPWHQQLSQAFPKLDFLLDTIDANLAEWKAIAESYRQMH
notes: Rhodopsin phosphodiesterase (Rh-PDE) of Salpingoeca rosetta, full length; also called full-length Rh-PDE; Rh-PDE (full); source: purified as the TMD constructs (HEK293S GnTI- cells) but in DDM/CHS; reconstituted in an asolectin lipid bilayer; not shown: GFP-His8, C-terminal, cleaved
stoichiometry N [3]: 2
